Measured values from patent US20100120788A1, “IDENTIFICATION OF POLYNUCLEOTIDES FOR […] OF COMPOUNDS THAT […] WITH AND/OR MODULATE PROTEIN TYROSINE KINASES AND/OR PROTEIN TYROSINE KINASE […] IN PROSTATE CELLS” (Bristol-Myers Squibb Company, priority 2007, published 2010).

How the values were obtained:
[1] = tested on: secreted uPA protein in PC3 cells; assay: uPA protein ELISA assay of culture medium; format: cell-based, human; conditions: different doses, 24 h, per 50,000 viable cells
From the text: FIG. 3. PLAU gene expression and regulation by dasatinib analyzed at mRNA and protein levels. (A) Differential baseline expression of PLAU gene between resistant (R, in black) and sensitive (S, in red) cell lines. The X-values are the expression level in log2-scale. The resistant cell line expressing high level of PLAU was WPMY1 and the sensitive cell line expressing low level of PLAU was LNCaP. (B) Down-regulation of PLAU mRNA level by dasatinib-treatment in 5 sensitive cell lines. The cells were treated with 100 nM dasatinib (+D) or DMSO (Ctrl) for 48 hours. The p value was 0.048 in paired t-test, indicating a significant reduction of PLAU mRNA following dasatinib treatment. (C) Correlation between dasatinib-induced PLAU mRNA down-regulation with the sensitivity of cell lines to dasatinib. […] The amount of uPA protein secreted into the culture medium by 50,000 viable cells was assessed by ELISA assay. […]
Cell were seeded in 24-well plates at density of 25,000 cells/well. […] Total number of cells were also quantitated using a cell counter, and the number of viable cells were assessed with Trypan Blue. The amount of uPA protein in the supernatant was determined using the uPA ELISA kit (America Diagnostica, Stamford, Conn.), and the concentrations of uPA secreted by 50,000 viable cells into the medium were calculated.

[2] = tested on: imatinib-resistant BCR-ABL mutants; conditions: number of mutants of those tested; cited from earlier work

SMILES | amount of uPA protein secreted into the growth medium [1] | imatinib-resistant BCR-ABL mutants against which significantly active [2]
CC(=O)O[C@H]1C(=O)[C@@]2(C)[C@H]([C@H](OC(=O)c3ccccc3)[C@]3(O)C[C@H](OC(=O)[C@H](O)[C@@H](NC(=O)c4ccccc4)c4ccccc4)C(C)=C1C3(C)C)[C@]1(OC(C)=O)CO[C@@H]1C[C@@H]2O [TAXOL®] | did not see a dose-dependent reduction | 
Cc1cn(-c2cc(NC(=O)c3ccc(C)c(Nc4nccc(-c5cccnc5)n4)c3)cc(C(F)(F)F)c2)cn1 [AMN107] |  | 32/33
